Measured values taken from patent US20230063321A1, “Methods for Treating Inflammatory Bowel Diseases with alpha4beta7 Integrin Antagonists” (Protagonist Therapeutics, Inc., priority 2020, published 2023).
Values belong to the molecule of their own block, whether it stands above or below them. Numbered stars: 1 amine (or outer) side, 2 acyl side, 3 side chain; on linkers, the order of the positions; unused ones are H or OH. Bridge positions count the residues as written; N and C are the ends. Square brackets hold non-standard residues; d marks the D form. Peptide text beside a SMILES is read from it. I, II: the chains in the order shown. ξ: configuration not given here. Phe(4-tBu) = CC(C)(C)c1ccc(C[C@H](N)C(=O)O)cc1; Diglycolyl = O=C(COCC(=O)[*:2])[*:1]; NMeR = CN[C@@H](CCCNC(=N)N)C(=O)O; β3hE = N[C@@H](CCC(=O)O)CC(=O)O; Thr(3ξ) = CC(O)[C@H](N)C(=O)O; Pen = CC(C)(S)[C@H](N)C(=O)O

Experiments:
α4β7 [1] = target: T1, α4β7 (Homo sapiens, UniProt P13612+P26010); assay: α4β7 internalization / surface expression by flow cytometry; assay type: cell-based; details: human PBMCs, 100 nM, 24 h
T1 construct: endogenous in cells
From the text: Blood samples from human donors were obtained from the Stanford Blood Center (Stanford, Calif.) under an RB-approved research protocol. Blood was drawn into BD Vacutainer sodium heparin blood collection tubes (BD Biosciences, Cat #362753). Peripheral blood mononuclear cells (PBMCs) were isolated from blood using a SepMate-50 tube and LymphoPrep per the manufacturer's protocol. CD4^+ T memory cells were enriched after PBMC isolation, using an EasySep kit (StemCell Technologies) per the manufacturer's protocol.
After incubation, an aliquot of cells from each reaction was stained for α4β7 expression.
After incubation, cells were washed extensively to remove excess peptide. For each reaction, an aliquot of cells was stained for α4β7 expression, while a separate aliquot was tested for adhesion to MAdCAM1.
An aliquot of cells were collected before and 24 h post peptide addition and stained for α4β7 expression. Afterwards, cells were extensively washed to remove excess peptide and incubated in fresh complete culture medium (without MnCl2) for an additional seven days. On day 1, 2, 4, 5, and 7 days after peptide washout, aliquots were stained for α4β7 expression.
Following peptide incubation, an aliquot of each reaction was stained for surface expression of α4β7 in preparation for flow cytometry. Cells were stained at 4° C. for 30 minutes, washed twice in DPBS containing 0.5% BSA (PBS/BSA), incubated with streptavidin BV421 (diluted 1:1000) at 4° C. for 30 minutes, washed twice in PBS/BSA, and then resuspended in PBS/BSA for analysis. Where relevant, a “fluorescence minus one” (FMO) sample was used as the staining control.
Samples were analyzed by flow cytometry on a BD (Franklin Lakes, N.J.) FACSVerse flow cytometer equipped with the following lasers: 405 nm (violet), 488 nm (blue), 561 nm (yellow-green), and 640 nm (red). CD4^+ T memory cells were identified as CD4^+, […], CD197^+ lymphocytes. α4β7 expression within CD4^+ T memory cells was identified based on staining with the Vedolizumab BV421 complex; staining was analyzed using BD FACSuite software, version 1.0.5. Where applicable, values were normalized to no-peptide controls and expressed as percentages to permit assessment of changes in the indicated parameter. Data were plotted and analyzed using Prism software (version 7; GraphPad, La Jolla, Calif.).

α4β7 [2] = target: T2, α4β7 (Mus musculus, UniProt P26011+Q00651); assay: α4β7 receptor occupancy in whole blood and Peyer's patches after oral dosing; assay type: in vivo, C57BL/6 mice
T2 construct: mice were euthanized and whole blood/plasma and Peyer's patches were collected; from tissue; host or cells: whole blood and Peyer's patches of C57BL/6 mice
Experimental: One hour following dosing, mice were euthanized and whole blood/plasma and Peyer's patches were collected. Peyer's patches were dispersed in 1 mL RPMI medium with 2% FBS without washing step. Whole blood and single cell suspension of Peyer's patches (100 uL out of 1 mL total) were submitted for flow cytometry to determine α4β7 receptor occupancy. % RO=(1−(% positive test sample/% positive median vehicle control))*100. Plasma and Peyer's patches dispersed in single cell suspension (500 uL of 1 mL total) were also analyzed for drug exposure.

α4β7 integrin = target: T3, α4β7 integrin (Homo sapiens, UniProt P13612+P26010); assay: Inhibition of MAdCAM1-mediated CD4+ T cell proliferation (plate bound anti-CD3 + MAdCAM1); assay type: cell-based; details: Compound A 1 uM, inactive analog 1 uM, vedolizumab 500 ng/mL; three days
T3 construct: endogenous in cells; host or cells: primary human CD4+ T cells enriched from PBMCs of healthy donors
Experimental: PBMCs were purified from healthy human donors and enrichment of CD4+ T cells was performed. […] Phenotype, distribution of T-helper (Th) subsets and % RO analyses were conducted by flow cytometry of freshly stained live samples.

[3] = target: α4β7 integrin (mouse, on cells of whole blood and Peyer's patches) (mouse) (UniProt Q00651); assay: flow cytometry α4β7 receptor occupancy in Peyer's patches, mice dosed orally 3 or 30 mg/kg
Sequence of α4β7 integrin (mouse, on cells of whole blood and Peyer's patches) (mouse) (Q00651 41-1039, chain 1 of 2): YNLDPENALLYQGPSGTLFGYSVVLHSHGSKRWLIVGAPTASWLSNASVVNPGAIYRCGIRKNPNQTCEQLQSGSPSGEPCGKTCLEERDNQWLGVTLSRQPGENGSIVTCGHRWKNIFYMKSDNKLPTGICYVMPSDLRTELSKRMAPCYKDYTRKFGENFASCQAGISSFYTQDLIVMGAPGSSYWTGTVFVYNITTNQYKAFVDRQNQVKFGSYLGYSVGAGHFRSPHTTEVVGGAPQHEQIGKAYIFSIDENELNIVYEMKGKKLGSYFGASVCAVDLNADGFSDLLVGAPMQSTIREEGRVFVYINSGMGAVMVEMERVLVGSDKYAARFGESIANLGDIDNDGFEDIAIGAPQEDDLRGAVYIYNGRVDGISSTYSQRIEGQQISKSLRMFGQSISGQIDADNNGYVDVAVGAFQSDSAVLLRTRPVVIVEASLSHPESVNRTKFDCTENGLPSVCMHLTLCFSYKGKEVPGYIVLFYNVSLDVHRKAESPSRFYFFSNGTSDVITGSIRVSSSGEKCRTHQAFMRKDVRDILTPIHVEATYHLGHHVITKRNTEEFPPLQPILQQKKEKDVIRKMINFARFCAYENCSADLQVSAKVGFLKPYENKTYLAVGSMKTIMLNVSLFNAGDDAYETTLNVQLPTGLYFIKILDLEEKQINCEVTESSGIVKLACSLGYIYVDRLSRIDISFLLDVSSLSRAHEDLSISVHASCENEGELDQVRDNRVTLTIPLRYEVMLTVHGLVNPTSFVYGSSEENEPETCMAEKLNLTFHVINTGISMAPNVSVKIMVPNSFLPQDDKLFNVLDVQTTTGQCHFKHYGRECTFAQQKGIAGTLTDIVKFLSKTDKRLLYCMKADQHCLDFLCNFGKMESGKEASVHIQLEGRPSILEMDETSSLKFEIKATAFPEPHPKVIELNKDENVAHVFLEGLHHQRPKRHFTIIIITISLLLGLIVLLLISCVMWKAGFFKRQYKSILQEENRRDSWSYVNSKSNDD
Sequence of α4β7 integrin (mouse, on cells of whole blood and Peyer's patches) (mouse) (P26011 20-806, chain 2 of 2, further chain): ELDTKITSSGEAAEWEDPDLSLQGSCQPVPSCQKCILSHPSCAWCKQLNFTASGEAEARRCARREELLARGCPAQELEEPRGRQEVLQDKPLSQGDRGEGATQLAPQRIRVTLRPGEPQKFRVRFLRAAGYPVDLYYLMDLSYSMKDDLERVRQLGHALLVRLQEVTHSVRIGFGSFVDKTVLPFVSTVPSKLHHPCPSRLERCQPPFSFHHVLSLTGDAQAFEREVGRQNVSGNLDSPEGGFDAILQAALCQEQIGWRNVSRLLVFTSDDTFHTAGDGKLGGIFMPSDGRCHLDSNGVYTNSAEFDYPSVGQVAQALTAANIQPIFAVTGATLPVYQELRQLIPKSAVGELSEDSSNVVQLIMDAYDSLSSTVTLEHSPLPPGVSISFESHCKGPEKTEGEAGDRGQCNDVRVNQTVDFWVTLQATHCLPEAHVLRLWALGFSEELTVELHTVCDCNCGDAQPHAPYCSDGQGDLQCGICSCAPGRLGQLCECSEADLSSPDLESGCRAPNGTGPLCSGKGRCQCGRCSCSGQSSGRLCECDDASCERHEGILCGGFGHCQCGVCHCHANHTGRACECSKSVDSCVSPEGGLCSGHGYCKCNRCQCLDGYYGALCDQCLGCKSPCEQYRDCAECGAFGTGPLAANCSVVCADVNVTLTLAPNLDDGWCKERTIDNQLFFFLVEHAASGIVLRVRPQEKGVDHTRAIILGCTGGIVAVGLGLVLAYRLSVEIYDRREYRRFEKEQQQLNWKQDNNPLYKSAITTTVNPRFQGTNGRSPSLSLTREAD

T2 sequence (Q00651 41-1039): as the sequence (Q00651 41-1039, chain 1 of 2) above
T2 sequence (P26011 20-806): as the sequence (P26011 20-806, chain 2 of 2, further chain) above

internalization of α4β7 (α4β7 [1]): caused internalization of α4β7
receptor occupancy in Peyer's patches (α4β7 [2]; 3 and 30 mg/kg PO, 1 h post dose, some animals): 100%
receptor occupancy in whole blood and Peyer's patches, 30 mg/kg vs 3 mg/kg dose group (α4β7 [2]; PO): comparable
receptor occupancy in Peyer's patches compared to whole blood (α4β7 [2]; both dose groups (3 and 30 mg/kg PO)): significantly higher
Molecule: CC(=O)N[C@@H]1C(=O)N(C)[C@@H](CCCNC(=N)N)C(=O)N[C@@H](CO)C(=O)N[C@@H](CC(=O)O)C(=O)N[C@@H](C(C)O)C(=O)N[C@@H](CC(C)C)C(=O)N[C@H](C(=O)N[C@@H](Cc2ccc(C(C)(C)C)cc2)C(=O)N[C@@H](CCC(=O)O)CC(=O)N[C@H](CCCCNC(=O)COCC(=O)NCCCC[C@@H](NC(=O)C[C@H](CCC(=O)O)NC(=O)[C@H](Cc2ccc(C(C)(C)C)cc2)NC(=O)[C@H]2NC(=O)[C@H](CC(C)C)NC(=O)[C@H](C(C)O)NC(=O)[C@H](CC(=O)O)NC(=O)[C@H](CO)NC(=O)[C@H](CCCNC(=N)N)N(C)C(=O)[C@@H](NC(C)=O)C(C)(C)SSC2(C)C)C(N)=O)C(N)=O)C(C)(C)SSC1(C)C (stereo partly drawn) [Compound B, (Ac-Pen-(N-Me-Arg)-Ser-Asp-Thr-Leu-Pen-(Phe(4-tBu))-(β-homo-Glu)-(D-Lys)-NH2)2 (SEQ ID NO. 6) with linker=DIG (diglycolic acid)] (I: Ac-[Pen][NMeR]SD[Thr(3ξ)]L[Pen][Phe(4-tBu)][β3hE][dK]-NH2 / II: Ac-[Pen][NMeR]SD[Thr(3ξ)]L[Pen][Phe(4-tBu)][β3hE][dK]-NH2; disulfide I:1-I:7, II:1-II:7; linker I:10-II:10 via Diglycolyl)

Molecule: vedolizumab: intravenously administered humanized IgG monoclonal antibody directed against α4β7 [reference compound]
inhibition of MAdCAM1-mediated proliferation of CD4+ T-cells (α4β7 integrin): level of inhibition was similar to inhibition by vedolizumab

receptor occupancy (%) [3]: 100%
B1: Compound B (peptide)
peptide: Ac-[Pen][NMeR]SDTL[Pen][Phe(4-tBu)][β3hE][dK]-NH2
modifications: disulfide 1-7; also: homodimer linked through D-Lys residues by diglycolic acid (DIG)
